Source: patent publication US10865196B2, “Compounds for treatment of cancer” (University of Tennessee Research Foundation, priority 2008, dated 2020)
Values joined by “and” are separate entries in the source; they are usually repeats but may differ in a detail not shown here. Equal values may be shown once. Read-outs that look alike come from different tables or passages of the source. Values belong to the molecule of their own block, whether it stands above or below them.

Key:
[1] = tested on: melanoma (A375, B16-F1) and prostate cancer cells (DU145, PC-3, LNCaP, PPC-1); test: SRB assay, range over melanoma and prostate cancer cell lines; assay type: cell-based; settings: range over the examined cell lines; read-out: IC50 over melanoma and prostate cancer cell lines
Description: (§1) For melanoma assays, one human melanoma cell line (A375) and one mouse melanoma cell line (B16-F1) were used. […] Fibroblast cells were used as a control to determine the selectivity of these compounds against melanoma. Human dermal fibroblast cells were purchased from Cascade Biologics, Inc., Portland, Oreg., USA. […] Cells were exposed to a wide range of concentrations for 48 h in round-bottomed 96-well plates. […] After cells were air-dried overnight and stained with SRB solution, total proteins were measured at 560 nm with a plate reader.

[2] = pharmacokinetic study in Sprague-Dawley rats; settings: rat
[3] = tested on: LNCaP prostate cancer cells; test: cell cycle analysis, propidium iodide; assay type: cell-based, human; settings: 24 h
[4] = tested on: Human A375 malignant melanoma cells; test: A375 melanoma colony formation; assay type: cell-based; settings: 10 days
Description: Human A375 malignant melanoma cells were plated at a colony-forming density (200 cells per well on six well plates). Cells were grown in DMEM medium (GIBCO, Invitrogen Corp., Carlsbad, Calif.) supplemented with charcoal-stripped fetal bovine serum (HyClone, Logan, Utah) and an antibiotic-antimycotic solution (Sigma, St. Louis, Mo.) at 37° C. in an atmosphere of 95% air and 5% CO2. […] Cells were grown for 10 days and colonies were fixed with 4% paraformaldehyde in PBS at 4° C. The fixed colonies were washed with distilled water, stained with 0.1% crystalline blue for 30 min and rinsed with distilled water to remove excess of the dye. Plates were photographed and colony formations were examined by eye and under the microscope.

[5] = tested on: NCI-60 human tumor cell lines; test: NCI-60 screening assay
[6] = pharmacokinetic study in ICR mice; settings: mouse, IV 10 mg/kg
[7] = tested on: B16-F1 mouse melanoma; test: B16-F1 melanoma tumor in C57BL/6 mice; assay type: in vivo; settings: B16-F1 in C57BL/6 mice, 6 mg/kg daily i.p.
Description: B16 tumors will grow in a fully immunocompetent host, in which case the tumor progression may more accurately replicate melanoma growth. Logarithmic growth phase B16-F1 (3.8×10^5) cells were injected s.c. into the right dorsal flank of C57BL/6 mice. When tumors were palpable, mice were randomized into a control and a treatment group (n=9). […] Body weights were also recorded. Tumor volume was expressed as cubic millimeters. […] There was no significant body weight loss (<5%), and all mice had normal activities during the experiments.

[8] = tested on: prostate cancer cells (LNCaP, PC-3, DU-145, PPC-1); test: SRB assay, prostate cancer cells; assay type: cell-based, human; settings: range over prostate cancer cell lines, read-out: IC50 values against prostate cancer cells
[9] = tested on: melanoma cells; test: SRB assay, melanoma cells; assay type: cell-based; settings: range over melanoma cell lines; read-out: IC50 values against melanoma cells
Description: as §1

[10] = metabolic stability in human liver microsomes; settings: Phase I conditions, FIG. 18
[11] = tested on: C26; test: SRB antiproliferation assay, C26 colon cancer; settings: C26, 96 h, read-out: IC50 in the SRB, C26
[12] = tested on: NCI/ADR-RES; test: SRB antiproliferation assay, P-gp over-expressing NCI/ADR-RES; settings: Homo sapiens, NCI/ADR-RES, 96 h, read-out: IC50 in the SRB, NCI/ADR-RES
[13] = tested on: MES-SA; test: SRB antiproliferation assay, MES-SA uterine cancer; settings: Homo sapiens, 96 h, read-out: IC50 in the SRB, MES-SA
[14] = tested on: A549; test: SRB antiproliferation assay, A549 lung cancer; settings: Homo sapiens, A549, 96 h, read-out: IC50 in the SRB, A549
[15] = tested on: PC-3; test: SRB antiproliferation assay, PC-3 prostate cancer
[16] = tested on: MES-SA/DX5; test: SRB antiproliferation assay, doxorubicin-resistant MES-SA/DX5
[17] = tested on: MCF7; test: SRB antiproliferation assay, MCF7 breast cancer; settings: Homo sapiens, MCF7, 96 h, read-out: IC50 in the SRB, MCF7
[18] = tested on: OVCAR-8; test: SRB antiproliferation assay, OVCAR-8 ovarian cancer; settings: Homo sapiens, OVCAR-8, 96 h, read-out: IC50 in the SRB, OVCAR8
[19] = tested on: confluent HUVEC monolayers; test: endothelial monolayer permeability assay; assay type: cell-based, human; settings: leakage of FITC-dextran (MW 40,000) after 1, 2 and 4 h
Description: Endothelial monolayer permeability assay.

[20] = tested on: HUVEC; test: endothelial cell growth inhibition SRB, HUVEC; assay type: cell-based, human; settings: for Selectivity ratio, cancer cells/HUVEC: mean IC50 in PC3 and T47D over IC50 in HUVEC
[21] = tested on: T47D; test: cell growth inhibition SRB, T47D; assay type: cell-based; settings: Homo sapiens, N = 3, Table 14
Description: (§2) Cell growth inhibition studies. […] Cells were stained with sulphorhodamine B (SRB) solution.

[22] = tested on: PC3; test: cell growth inhibition SRB, PC3 (vascular study); assay type: cell-based; settings: Homo sapiens, PC-3, N = 3, Table 14
Description: as §2

[23] = tested on: OVCAR8 xenografts; test: OVCAR8 xenograft in nude mice; settings: OVCAR8 ovary xenograft, IV 10 mg/kg 1/wk
[24] = tested on: PC-3; test: apoptosis, cytoplasmic DNA-histone complexes, PC-3; assay type: cell-based, human; settings: 0.8 to 600 nmol/L, 24 h
[25] = tested on: C26 xenografts; test: C26 xenograft in nude mice; settings: C26 colon xenograft, IV 10 mg/kg 1/wk
[26] = tested on: A549 xenografts; test: A549 xenograft in nude mice; settings: A549 lung xenograft, IV 10 mg/kg 1/wk
[27] = tested on: MES-SA/DX5 xenografts; test: MES-SA/DX5 xenograft in nude mice; settings: MES-SA/DX5 uterine (MDR) xenograft, IV 10 mg/kg 1/wk
[28] = tested on: PC-3/TxR tumors
[29] = tested on: HUVEC capillary tube formation; test: capillary formation assay on Matrigel; assay type: cell-based, human; settings: at toxic concentration
[30] = tested on: B16-F1; test: SRB antiproliferation assay, B16-F1 melanoma; assay type: cell-based, mouse; settings: Mus musculus, B16-F1, SRB; read-out: IC50 B16-F1 (converted)
Description: (§3) For melanoma assays, one human melanoma cell line (A375) and one mouse melanoma cell line (B16-F1) were used. […] Fibroblast cells were used as a control to determine the selectivity of these compounds against melanoma. Human dermal fibroblast cells were purchased from Cascade Biologics, Inc., Portland, Oreg., USA.

[31] = tested on: A375; test: SRB antiproliferation assay, A375 melanoma; assay type: cell-based, human; settings: Homo sapiens, A-375, SRB; read-out: IC50 A375 (converted)
Description: as §3

[32] = tested on: colchicine-binding site on tubulin; test: competitive mass binding assay, colchicine-tubulin binding; settings: tubulin 1 mg/mL
[33] = read-out: IC50 in the SRB, PC3, 96 h treatment, N = 3, Table 15
[34] = Homo sapiens, MES-SA/Dx5, 96 h, read-out: IC50 in the SRB, MES-SA/DX5, uterine MDR, 96 h, N = 3
[35] = 5 mg/kg injected, 20 min-48 h, 5 mg/kg

Structure (SMILES): COc1cc(C(=O)c2csc(-c3ccccc3)n2)cc(OC)c1OC [8f, (2-Phenyl-thiazol-4-yl)-(3,4,5-trimethoxy-phenyl)-methanone]
- IC50 [1]: 21 to 71 nM
- RatPK IV CI at 2.5 mpk ([2]; IV 2.5 mpk): 7.7 (2.5 mpk) mL/min/kg
- RatPK IV V at 2.5 mpk ([2]; IV 2.5 mpk): 4.9 (2.5 mpk) L/kg
- effect on cell cycle distribution ([3]; 10 nM): no effect
- proportion of cells in G2/M phase ([3]; 50 nM, about 10% in untreated cells): 57%
- proportion of cells in G2/M phase ([3]; 200 nM): 63%
- proportion of cells in G2/M phase ([3]; 500 nM): 49%
- melanoma colony formation ([4]; A375, 0.03 μM): significantly inhibit
- melanoma colony formation ([4]; A375, 0.3 and 3 μM): completely inhibited
- GI50 ([5]; Homo sapiens, read-out: NCI-60 GI50 values): < 10 nM
- NCI-60 TGI values ([5]; against most cell lines): micromolar range
- MousePK_IV10mgk_CI [6]: 130 mL/min/kg
- MousePK_IV10mgk_V [6]: 4.9 Lkg

- IC50 [1]: 6 to 43 nM
- IC50 ([8]; Homo sapiens): 6 to 13 nM
- IC50 [8]: 6 to 12 nM
- IC50 [9]: 33 to 43 nM
Structure (SMILES): COc1cc(C(=O)c2csc(-c3ccc(F)cc3)n2)cc(OC)c1OC [8n, [2-(4-Fluorophenyl)-thiazol-4-yl]-(3,4,5-trimethoxyphenyl)-methanone]
- body weight loss [7]: < 5%
- tumor growth inhibition [7]: significant tumor growth inhibition
- melanoma colony formation ([4]; A375, 0.03 μM): significantly inhibit
- melanoma colony formation ([4]; A375, 0.3 and 3 μM): completely inhibited

- stability in human liver microsomes, in words [10]: acceptable stability
- IC50 [11]: 16 nM
- IC50 [13]: 18 nM
- IC50 [14]: 21 nM
- IC50 [15, 33]: 5 nM
- IC50 [17]: 22 nM
- IC50 [18]: 16 nM
Structure (SMILES): COc1cc(C(=O)c2csc(-c3ccc4c(ccn4C)c3)n2)cc(OC)c1OC [31a]
- IC50 [12]: 14 nM
- IC50 [16, 34]: 18 nM

Structure (SMILES): COc1ccc(/C=C\c2cc(OC)c(OC)c(OC)c2)cc1O [CA4, reference compound]
- permeability of endothelial cell monolayer [19]: increased permeability
- IC50 ([20]; Homo sapiens, HUVEC, SRB, N = 3, growth factor-supplemented endothelial cells): 1.2 nM
- IC50 [21]: 6 nM
- IC50 [22]: 3.2 nM

Structure (SMILES): CC(=O)O[C@@]12CO[C@@H]1C[C@H](O)[C@@]1(C)C(=O)[C@H](O)C3=C(C)[C@@H](OC(=O)[C@H](O)[C@@H](NC(=O)OC(C)(C)C)c4ccccc4)C[C@@](O)([C@@H](OC(=O)c4ccccc4)[C@H]21)C3(C)C [Docetaxel, reference compound]
- IC50 [11]: 4 nM
- TGI [23]: 22%
- induction of cell apoptosis in PC-3 [24]: highly potent
- IC50 [13]: 0.1 nM
- TGI [25]: 35%
- IC50 [14]: 0.2 nM
- IC50 ([15]; read-out: Cytotoxicity IC50 mean ± SD, PC-3, 96 h treatment, N = 3): 1.2 ± 0.1 nM
- IC50 [15, 33]: 1 to 5 nM
- IC50 ([16]; read-out: IC50 in the SRB, MES-SA/DX5, uterine MDR, 96 h, N = 3): 26 nM
- IC50 ([16]; read-out: IC50 in the SRB, MES-SA/DX5, uterine MDR, 96 h, N = 3, listed as DTX): 426 nM
- TGI [26]: 44%
- IC50 [17]: 0.1 nM
- IC50 [18]: 0.4 nM
- TGI [27]: 47%
- TGI ([28]; PC3/TXR prostate (MDR) xenograft, IV 10 mg/kg 1/wk): 14%
- TGI ([28]; PC-3/TxR xenograft, IV 10 mpk day 1 and 9, day 19): 14%
- TGI ([28]; PC-3/TxR xenograft, IV 20 mpk day 1 and 9, day 19): 56%

- permeability of endothelial cell monolayer [19]: did not induce any change
Structure (SMILES): COc1cccc2c1C(=O)c1c(O)c3c(c(O)c1C2=O)C[C@@](O)(C(=O)CO)C[C@@H]3O[C@H]1C[C@H](N)[C@H](O)[C@H](C)O1 [Doxorubicin]
- Selectivity ratio, cancer cells/HUVEC [20]: 1.4
- Selectivity ratio, cancer cells/HUVEC ([20]; listed as doxorubicin): not specific to endothelial cells
- capillary construction [29]: did not affect

- AUC [2, 35]: 210 µg·min/mL and 249 µg·min/mL
- CI [2, 35]: 23 mL/min/kg and 18 mL/min/kg
- stability in human liver microsomes, in words [10]: acceptable stability
- IC50 [11]: 5 nM
- IC50 [30]: 8.3 nM
- IC50 [13]: 6 nM
- IC50 [14]: 9 nM
- IC50 ([15]; read-out: IC50 PC-3, SRB): 7.6 nM
- IC50 [17]: 11 nM
- IC50 [18]: 11 nM
- IC50 [31]: 25 nM
Structure (SMILES): COc1cc(C(=O)c2csc(-c3ccc4[nH]ccc4c3)n2)cc(OC)c1OC [compound 31]
- IC50 [12]: 5 nM
- IC50 [16, 34]: 8 nM

Structure (SMILES): CC[C@]1(O)C[C@@H]2CN(CCc3c([nH]c4ccccc34)[C@@](C(=O)OC)(c3cc4c(cc3OC)N(C)[C@H]3[C@@](O)(C(=O)OC)[C@H](OC(C)=O)[C@]5(CC)C=CCN6CC[C@]43[C@@H]65)C2)C1 [vinblastine, reference compound]
- competition with colchicine for tubulin binding [32]: did not inhibit the colchicine-tubulin binding
